IC50 data for two molecules are collected here from patent US9949976B2, “Kinase inhibitor and use thereof” (Sihuan Pharmaceutical Holdings Group Ltd., priority 2013, dated 2018).

Common to all, as to format: cell-based
The subject of one assay is JeKo-1 lymphoma cell. The assay is described as follows: BrdU cell proliferation assay (PerkinElme kit). To be noted: Homo sapiens, JeKo-1, 48 h; read-out: In vitro cell-inhibiting activity IC50 JeKo-1. On the procedure:
Experimental method: cell proliferation assay was carried out by BrdU method (BrdU cell proliferation assay kit, PerkinElme Company).
Preparation of gradient dilution solutions of test compound: the stock solution containing 5 mM test compound was diluted by DMSO to prepare a 2 mM solution, then was subjected to 4-fold stepwise dilution to 9 concentration gradients.
(1) Cells grown to exponential growth phase were digested with pancreatin, and centrifuged to collect the cells. The adherent cells were re-suspended in the corresponding culture medium, counted, and seeded to a 96-well plate; H358 cells and SW780 cells were seeded at 4000 cells/well/100 μL; PC3 cells were seeded at 1500 cells/well/100 μL; H441 cells were seeded at 6000 cells/well/100 μL. The plates were placed in a cell incubator at 37° C. After the cells adhered to the wall, the medium was replaced by serum-free medium. The suspended cells MV-4-11 and JeKo-1 were re-suspended with serum-free medium, counted, seeded to a 96-well plate by 10000 cells/well/100 μL and placed in a cell incubator overnight at 37° C. with 5% CO2.
(2) To each well, 99 μL growth medium containing 2×FBS was added, then 1 μL diluted 200× test compound was added to the well. The final concentration of the test compound was 10000, 2500, 625, 156.25, 39.06, 9.77, 2.44, 0.61, 0.15 or 0 nM, and the cells were cultured for 48 h at 37° C.
(3) To each well, 2 μL 100-fold BrdU labelled solution was added, and the culture medium was sucked by a vacuum pump after incubation in a cell incubator overnight and equilibrated at room temperature for 0.5 h.
(4) To each well, 100 μL fixing solution was added; the solution was discarded after incubation for 30 min at room temperature.
(5) To each well, 100 μL 1-fold BrdU-Eu detection antibody solution was added, the solution was discarded after incubation for 1 h at room temperature, and the well was washed with 1-fold washing liquor at 250 μL/well for 5 times.
(6) To each well, 200 μL of DELFIA Inducer was added and incubated for 15 min at room temperature. Value of fluorescence (Flu) was measured by ELISA instrument
(2) The data was processed by GraphPad Prism 6 software to get a curve and IC50 values.

The subject of assay [1] is HGC-27 gastric cancer cell. The experiment in a line: BrdU cell proliferation assay (Cell Signaling kit). As to conditions: Homo sapiens, HGC-27, 72 h; read-out: In vitro cell-inhibiting activity IC50 HGC-27. On the procedure: (§1) Experimental method: cell proliferation assay was carried out by BrdU method (BrdU cell proliferation assay kit, Cell Signaling Technology Company).
(§2) Preparation of gradient dilution solutions of test compound: the stock solution containing 10 mM test compound was subjected to 4-fold stepwise dilution with DMSO to prepare solutions containing 2.5 mM, 625 μM, 156 μM, 39 μM, 9.8 μM, and 2.5 μM test compound, respectively. 2 μL DMSO-diluted compound was added to 198 μL culture medium containing 10% FBS to prepare […] test compound, wherein the maximum concentration of the test compound was 100 μM, the concentration of DMSO was 1%, and there were 7 concentration gradients.
HGC-27 medium: DMEM+10% FBS
(1) Cells grown to 80% confluence (in exponential growth phase) were digested with pancreatin, and centrifuged to collect the cells. Cells were re-suspended in FBS-free culture medium, counted, and seeded to a 96-well plate at 4000 cells/well/81 μL. The plates were placed in a cell incubator at 37° C.
(2) After 24 h culture, 9 μL FBS was added to each well to reach a final FBS concentration of 10%. […]
(9) To each well, 100 μL stop solution was added, and OD value at 450 nm was measured by ELISA instrument 3. […]

Assay [2] deals with MCF-7 human breast cancer cell. The assay is described as follows: BrdU cell proliferation assay (Cell Signaling kit). As to conditions: MCF7, 72 h, read-out: In vitro cell-inhibiting activity IC50 MCF-7. The procedure:
as §1, §2
MCF-7 medium: DMEM+10% FBS+0.01 mg/mL insulin
(1) Cells grown to 80% confluence (in exponential growth phase) were digested with pancreatin, and centrifuged to collect the cells. MDA-MB-435S and U87MG cells were re-suspended in FBS-free culture medium, counted, and seeded to a 96-well plate; MDA-MB-435S cells were seeded at 3000 cells/well/81 μL; U87MG cells were seeded at 4000 cells/well/81 MCF-7 cells were resuspended in culture medium containing 1% FBS, and counted and seeded to a 96-well plate, at 4000 cell/well/82 μL. The plates were placed in a cell incubator at 37° C. […]
(9) To each well, stop solution (100 μL) was added, and OD value at 450 nm was measured by ELISA instrument […]

Turning to `CCN1CCN(Cc2cnc(Nc3cc(-c4cc(F)c5nc(C)n(C(C)C)c5c4)c(F)cn3)nc2)CC1` [Compound 1, 5-((4-ethylpiperazin-1-yl)methyl)-N-(5-fluoro-4-(4-fluoro-1-isopropyl-2-methyl-1H-benzo[d]imidazol-6-yl)pyridin-2-yl)pyrimidin-2-amine], the IC50 – broadly, the point on the concentration scale where inhibition reaches its midpoint – in the assay with JeKo-1 lymphoma cell is 37 nM; in assay [1], 316 nM.
For `CCN1CCN(Cc2ccc(Nc3ncc(F)c(-c4cc(F)c5nc(C)n(C(C)C)c5c4)n3)nc2)CC1` [LY2835219, reference compound], in assay [2], the IC50 amounted to 176 nM.
